The record followed here is patent US12115208B2, “Small-molecule adjuvants for antibiotics to address antibiotic resistance” (HIGH POINT UNIVERSITY, priority 2017, dated 2024).

Assay [1] relates to S. epidermidis ATCC 49461 biofilm. Description: Biofilm inhibition, crystal violet assay. It counts as cell-based, Staphylococcus epidermidis. The following applies: Staphylococcus epidermidis, ATCC49461, 30 h, read-out: Inhibition of biofilm formation IC50.
Assay [2] relates to S. aureus NR-49120 (VRSA). Kind of assay: microbe, parasite or virus in culture. The following applies: Staphylococcus aureus, 18 h.
Procedure: Minimum inhibitory concentrations were determined using a standard serial broth microdilution method. […] Mid-log-phase cultures were diluted to a concentration of approximately 5×10^5 CFU/ml in cation-adjusted Mueller-Hinton broth (CAMHB). Wells 2-11 of a 96-well polyvinylchloride microtiter plate were inoculated with 100 μl of bacterial suspension. 100 μl of uninnoculated CAMHB was added to well 12 to serve as a negative control. The top wells were inoculated with 200 μl of bacterial suspension with either antibiotics or compounds added. Serial dilutions were performed in wells 2-10, leaving well 11 to serve as the positive control. The microtiter plates were covered with Press-n-Seal and incubated at 37° C. for 18 hours without agitation. Plates were scored by visual detection of well turbidity.
The next assay deals with MRSA 43300 biofilm. Description: Biofilm inhibition, crystal violet assay. The note with it: 30 h. It counts as cell-based, Staphylococcus aureus. Here is the method:
A standard static crystal violet assay was used to quantify biofilm inhibition.^45 Cultures of S. aureus or S. epidermidis were grown overnight in TSBG (tryptic soy broth with 5% glucose) at 37° C. with shaking. These cultures were used to inoculate fresh TSBG to a calculated optical density of 0.01 at 600 nm (OD600). […] Untreated aliquots were used as a positive control and water served as a negative control. 100 μl of these suspensions were added to the wells of a 96-well polyvinylchloride microtiter plate. […] After incubation, media was discarded and the plates were washed with water to remove non-adherent cells. Adherent biofilms were stained with 110 μl of crystal violet (0.1% in water) and incubated at room temperature for thirty minutes. The crystal violet staining solution was discarded and plates were washed with water to remove excess stain. The resulting stained biofilms were solubilized with 200 μL of 95% ethanol for 10 minutes. 125 μl of the ethanol solutions were transferred to a clear polystyrene microtiter plate for evaluation. Absorbance at 540 nm was recorded using a BioTek Synergy H1 microplate reader. The absorbance of the negative control lanes was subtracted from the experimental values to account for background staining. Percent inhibition was calculated by comparison of the absorbance values of control versus treated wells under identical conditions.
Antibiotic resistance and biofilm formation share similar regulatory mechanisms. […] Biofilm inhibition was first assessed in S. aureus 43300, a methicillin-resistant strain (see Table 18). As described in Materials and Methods, a standard crystal violet assay was used to assess biofilm inhibition by the tested compounds. The IC50 is described as the compound concentration required to inhibit 50% of biofilm formation. The standard deviation is calculated from at least 3 independent experiments.

Assay [3] relates to S. aureus USA100 pre-formed biofilm. Description: Biofilm dispersion assay. The assay is classed as cell-based. The note with it: Staphylococcus aureus, S. aureus USA100 (MRSA). Here is the method:
(§1) Overnight cultures of S. aureus or S. epidermidis were subcultured to an OD600 of 0.01 in tryptic soy broth supplemented with 0.5% glucose (TSBG). For USA300Δ/+stk1, TSBG was supplemented with 0.2% xylose to induce transcription of stk1. 100 μl of the culture was distributed into rows 2-11 of a 96-well polyvinylchloride plate. Rows 1 and 12 were filled with 100 μl of sterile water and served as the negative controls. […] After the incubation period, the media was discarded and the plates were washed with water to remove non-adherent cells. Media containing the desired concentrations of compound was prepared and 100 μl was added to the desired rows. Media alone was added as a positive control and sterile water was added as a negative control. The plates were sealed with Glad Press-n-Seal and incubated under stationary conditions for another 24 hours. The media was discarded and plates were washed with water to remove any non-adherent bacteria. 110 μl of an aqueous crystal violet solution (0.1%) was added to each well and allowed to rest at room temperature to stain any biomass. After 30 minutes, the crystal violet solution was discarded and the plates were washed with water. The stained biomass was dissolved in 95% ethanol (200 μl) for 30 minutes and 125 μl was transferred to the corresponding wells of a flat-bottomed polystyrene 96-well plate. The absorbance of each well was measured at 540 nm. The wells that contained only water were used as background and subtracted from wells containing cultures.
(§2) Biofilm dispersion was quantified by calculating the ratio of the absorbance of the treated wells as compared to the untreated wells. These values were plotted and fit to a curve to determine the EC50.
(§3) Loratadine was also tested for the ability to disperse pre-formed biofilms. Biofilm dispersion is reported as an EC50, which is defined as the concentration of compound required to disperse 50% of the preformed biofilm.

Assay [4] deals with S. aureus 43300 pre-formed biofilm. Kind of assay: Biofilm dispersion assay. The assay is classed as cell-based. The following applies: Staphylococcus aureus, S. aureus 43300 (MRSA). How it is done:
as §1, §2, §3

Assay [5] concerns S. aureus 29213 pre-formed biofilm. Description: Biofilm dispersion assay. The note with it: Staphylococcus aureus. It counts as cell-based. Here is the method:
as §1, §2, §3

Assay [6] has as its system S. aureus USA300 pre-formed biofilm. Kind of assay: Biofilm dispersion assay. The assay is classed as cell-based. The following applies: Staphylococcus aureus, S. aureus USA300 (MRSA). Here is the method:
as §1, §2, §3

In assay [7] the test system is various S. aureus strains. Description: microbe, parasite or virus in culture. The note with it: Staphylococcus aureus, read-out: MICs.
Assay [8] concerns S. aureus USA100 (MRSA). Description: Antibiotic repotentiation (antibiotic MIC with/without compound). It counts as cell-based, Staphylococcus aureus. The note with it: +50 μM compound, S. aureus USA100 (MRSA). How it is done: (§4) The overnight culture was diluted into fresh CAMHB to a concentration of 5×10^5 CFU/ml. […] On the same plate, a standard microdilution MIC with the tested antibiotics and no added compound was also performed to compare the antibiotic MIC in the presence and absence of compound. […] Fold reductions were calculated by dividing the MIC of the antibiotic without compound by the MIC of the antibiotic in the presence of compound.

Assay [9] concerns S. aureus NR-49120 (VRSA). The description is as above. The assay is classed as cell-based, Staphylococcus aureus. The note with it: +50 μM compound, S. aureus NR-49120 (VRSA). How it is done: as §4
The subject of the next assay is S. epidermidis 49461. Kind of assay: Antibiotic repotentiation (oxacillin MIC with/without compound). It counts as cell-based, Staphylococcus epidermidis. The note with it: +50 μM compound, S. epidermidis 49461. Here is the method:
as §4
Antibiotic potentiation in S. epidermidis was also investigated.

The next assay has as its system S. aureus USA300 (MRSA). Kind of assay: Minimum inhibitory concentration, broth microdilution. It counts as cell-based, Staphylococcus aureus. The note with it: Staphylococcus aureus; compound alone; S. aureus USA300 (MRSA); CAMHB, 18 h; read-out: MIC. How it is done:
(§5) The compounds were then analyzed for antibiotic repotentiation activity. […] The tested strains included USA300, which is a common and particularly virulent strain of community-acquired MRSA.

The subject of assay [10] is S. aureus ATCC 43300 (MRSA). The assay is described as above. The assay is classed as cell-based, Staphylococcus aureus. The note with it: Staphylococcus aureus; compound alone; S. aureus ATCC 43300 (MRSA); CAMHB, 18 h; read-out: MIC. Here is the method: as §5
Assay [11] relates to S. aureus USA100 (MRSA). Description: microbe, parasite or virus in culture. It counts as cell-based, Staphylococcus aureus. The following applies: Staphylococcus aureus, compound alone, CAMHB, 18 h.

`CCOC(=O)N1CCC(=C2c3ccc(Cl)cc3CCc3cccnc32)CC1` [Loratadine, ethyl 4-(8-chloro-5,6-dihydrobenzo[1,2]cyclohepta[2,4-b]pyridin-11-ylidene)piperidine-1-carboxylate]: the IC50 (usually the concentration needed to halve the response being measured) in assay [1] was found to be 25.1 ± 3.65 µM; in the assay with MRSA 43300 biofilm, 11.5 µM; in the assay with MRSA 43300 biofilm (Staphylococcus aureus, MRSA) it was 11.4 µM. Moreover, the MIC (in assay [2]; in assay [7]; with S. aureus USA300 (MRSA); in assay [10]; with S. aureus USA100 (MRSA) [11]) was > 200 µM each time. Also, the EC50 (usually the concentration at which the effect is half-maximal) in assay [3] was 121 µM; in assay [4], > 200 µM; in assay [5], > 200 µM; in [6], > 200 µM. Moreover, the “Oxacillin MIC” value came to 0.5 µg/mL in the assay on S. aureus USA100 (MRSA) [8], 16 µg/mL in [9] and 16 µg/mL in the assay on S. epidermidis 49461. For the same molecule, the “Fold Reduction” value with S. aureus USA100 (MRSA) [8] (oxacillin MIC) was determined as 512; in assay [9] (oxacillin MIC), 8; with S. epidermidis 49461 (oxacillin MIC) it was 1.
